Data as given in paper PMC5769128, “Human UDP-Glucuronosyltransferase 2B4 and 2B7 Are Responsible for Naftopidil Glucuronidation in Vitro” (Frontiers in Pharmacology, 2018).
Read-outs that look alike come from different tables or passages of the source.

How the values were obtained:
[1] = system: human kidney microsomes (HKM); assay: Kinetics of NAF enantiomer glucuronidation by human kidney microsomes; format: in vitro ADME
Procedure: (§1) All glucuronidation assays were conducted in an incubation volume of 200 μL. Incubations were performed at 37°C in 50 mM Tris–HCl buffer (pH 7.5) with 10 mM magnesium chloride, 1 mg protein/mL of enzyme (microsomes and recombinant human UGTs), alamethicin (100 μg of alamethicin/mg microsomal protein), and NAF enantiomers (2.5–80 μM). The reaction was initiated by the addition of UDPGA (5 mM) and incubated at 37°C in a shaking water bath for 45 min. The reaction was terminated by the addition of 200 μL of ice-cold acetonitrile containing the IS (1 μM) and then centrifuged at 5000 ×g for 10 min at 4°C. The supernatant fraction was injected into the RRLC-MS/MS apparatus. Protein concentration (0.5–2 mg/mL) and incubation time (15–180 min) were optimized in preliminary studies to be within initial linear rate conditions.
(§2) Kinetic parameters were assessed in the HLM, RLM, HKM, RKM, and recombinant human UGTs (UGT2B4, 2B7, and 1A9).

[2] = parameters: method as in Liu et al., 2017; conditions: rat plasma; ref Liu et al., 2017; cited from earlier work
UGT2B7 = target: T1, UGT2B7 (Homo sapiens, UniProt P16662); assay: Kinetics of NAF enantiomer glucuronidation by recombinant UGT2B7; format: in vitro ADME; parameters: purchased BD Gentest
T1 sequence (P16662 24-529): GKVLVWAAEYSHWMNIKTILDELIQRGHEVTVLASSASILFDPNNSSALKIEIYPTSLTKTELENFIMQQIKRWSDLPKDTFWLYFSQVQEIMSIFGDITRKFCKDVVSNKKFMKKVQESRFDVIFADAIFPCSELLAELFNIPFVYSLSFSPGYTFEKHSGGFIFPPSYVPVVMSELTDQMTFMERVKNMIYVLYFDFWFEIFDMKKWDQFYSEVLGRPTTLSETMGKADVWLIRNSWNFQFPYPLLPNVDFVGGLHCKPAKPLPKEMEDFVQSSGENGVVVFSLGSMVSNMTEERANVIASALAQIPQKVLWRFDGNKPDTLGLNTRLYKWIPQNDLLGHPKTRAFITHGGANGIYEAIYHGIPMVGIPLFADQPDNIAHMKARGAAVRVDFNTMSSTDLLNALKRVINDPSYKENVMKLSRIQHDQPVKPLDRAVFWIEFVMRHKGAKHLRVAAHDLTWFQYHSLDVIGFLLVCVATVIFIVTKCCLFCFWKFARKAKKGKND
Procedure: as §1, §2

recombinant human UGT2B4 = target: T2, recombinant human UGT2B4 (Homo sapiens, UniProt P06133); assay: Kinetics of NAF enantiomer glucuronidation by recombinant UGT2B4; format: in vitro ADME
T2 construct: purchased BD Gentest
T2 sequence (P06133 24-528): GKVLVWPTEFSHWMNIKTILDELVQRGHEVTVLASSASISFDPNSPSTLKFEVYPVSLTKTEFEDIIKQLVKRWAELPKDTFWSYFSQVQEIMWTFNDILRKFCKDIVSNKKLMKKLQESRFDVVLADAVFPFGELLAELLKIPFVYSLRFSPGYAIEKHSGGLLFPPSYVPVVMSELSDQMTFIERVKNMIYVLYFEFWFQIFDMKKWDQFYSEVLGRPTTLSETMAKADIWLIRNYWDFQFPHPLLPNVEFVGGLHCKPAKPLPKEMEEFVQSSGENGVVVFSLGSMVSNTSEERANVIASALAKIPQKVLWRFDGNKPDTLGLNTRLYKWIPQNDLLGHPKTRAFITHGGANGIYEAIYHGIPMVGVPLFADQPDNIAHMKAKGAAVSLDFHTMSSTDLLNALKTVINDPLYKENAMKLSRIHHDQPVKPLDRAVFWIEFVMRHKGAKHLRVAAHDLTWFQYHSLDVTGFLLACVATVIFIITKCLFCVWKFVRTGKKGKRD
Procedure: as §1, §2

[3] = system: human liver microsomes (HLM); assay: Kinetics of NAF enantiomer glucuronidation by human liver microsomes; format: in vitro ADME
Procedure: as §1, §2

recombinant human UGT1A9 = target: T3, recombinant human UGT1A9 (Homo sapiens, UniProt O60656); assay: Kinetics of NAF enantiomer glucuronidation by recombinant UGT1A9; format: in vitro ADME
T3 construct: purchased BD Gentest
T3 sequence (O60656 26-530): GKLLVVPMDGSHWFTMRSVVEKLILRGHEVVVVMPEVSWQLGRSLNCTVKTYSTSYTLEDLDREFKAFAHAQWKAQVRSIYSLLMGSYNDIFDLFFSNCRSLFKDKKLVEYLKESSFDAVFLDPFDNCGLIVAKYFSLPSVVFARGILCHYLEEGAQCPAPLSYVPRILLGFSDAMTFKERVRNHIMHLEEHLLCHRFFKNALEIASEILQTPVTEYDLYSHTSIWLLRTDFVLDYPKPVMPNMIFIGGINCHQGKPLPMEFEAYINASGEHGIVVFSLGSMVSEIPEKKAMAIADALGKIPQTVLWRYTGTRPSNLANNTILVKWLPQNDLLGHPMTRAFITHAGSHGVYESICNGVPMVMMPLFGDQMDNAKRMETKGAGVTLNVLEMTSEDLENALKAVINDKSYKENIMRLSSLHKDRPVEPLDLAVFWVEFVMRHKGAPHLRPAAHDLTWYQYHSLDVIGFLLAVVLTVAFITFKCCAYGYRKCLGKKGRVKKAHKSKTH
Procedure: as §1, §2

[4] = human, after oral treatment; no reference given; cited from earlier work
[5] = rat, ref Himmel, 1994, cited from earlier work
[6] = human, ref Himmel, 1994, cited from earlier work
animals = system: animals; parameters: method as in Himmel, 1994; conditions: 100 mg/day, ref Himmel, 1994; cited from earlier work
[7] = system: NAF glucuronidation in pooled HLM (UGT2B4/UGT2B7, UGT1A9); assay: Inhibition of the glucuronidation of NAF enantiomers by specific UGT inhibitors in pooled HLM; conditions: inhibitor 5, 50 μM; pooled HLM
[8] = system: UGT2B4/UGT2B7 (NAF glucuronidation); assay: as above; conditions: human, pooled human liver microsomes, pH 7.5, probe R(+)-NAF 50 μM, S(-)-NAF 20 μM
[9] = substrate: COc1ccccc1N1CCN(C[C@H](O)COc2cccc3ccccc23)CC1; assay: cells, lysate or membranes named; conditions: pH 7.5, 37.0 °C
[10] = substrate: COc1ccccc1N1CCN(C[C@@H](O)COc2cccc3ccccc23)CC1; assay: cells, lysate or membranes named; conditions: pH 7.5, 37.0 °C
[11] = other: NAF glucuronidation by UGT2B4
[12] = other: NAF glucuronidation by UGT2B7

COc1ccccc1N1CCN(CC(COc2cccc3ccccc23)OC2OC(C(=O)O)C(O)C(O)C2O)CC1 (stereo not drawn) [R(+)-NAF-G]
Kinetics type [1]: Michaelis–Menten | Vmax [1]: 2786 ± 138 pmol/min/mg | level of glucuronide relative to parent enantiomer [2]: six | Kinetics type (UGT2B7): Substrate inhibition | Vmax (UGT2B7): 1043 ± 152 pmol/min/mg | Kinetics type (recombinant human UGT2B4): Substrate inhibition | Vmax (recombinant human UGT2B4): 264 ± 38 pmol/min/mg | Kinetics type [3]: Michaelis–Menten | Vmax [3]: 3330 ± 131 pmol/min/mg | Kinetics type (recombinant human UGT1A9): Substrate inhibition | Vmax (recombinant human UGT1A9): 34 ± 2 pmol/min/mg

COc1ccccc1N1CCN(CC(O)COc2cccc3ccccc23)CC1 (stereo not shown) [NAF, Naftopidil]
plasma levels [4]: < 10 µM | bioavailability ([5]; Liu et al., 2015, 2017): 6.8–14.5% | bioavailability [5]: 9% | bioavailability ([6]; Liu et al., 2015, 2017): < 20% | bioavailability [6]: 20% | adverse findings at high doses (animals): reduced food consumption and body weight gain, apathy, diarrhea, proteinuria, and slightly increased levels of alkaline phosphatase

O=C(O)c1cccnc1Nc1cccc(C(F)(F)F)c1 [niflumic acid]
Inhibition of NAF glucuronidation [7]: could not inhibit NAF glucuronidation

OC(Cn1cncn1)(Cn1cncn1)c1ccc(F)cc1F [Fluconazole, fluconazole]
inhibition at 45 min, 0.25 mM [8]: ~35% | inhibition at 45 min, 2.5 mM [8]: ~55%

COc1ccccc1N1CCN(CC(COc2cccc3ccccc23)OC2OC(C(=O)O)C(O)C(O)C2O)CC1 (stereo not drawn) [S(-)-NAF-G]
Kinetics type [1]: Substrate inhibition | Vmax [1]: 1957 ± 100 pmol/min/mg | level of glucuronide relative to parent enantiomer [2]: threefold | Kinetics type (UGT2B7): Substrate inhibition | Vmax (UGT2B7): 1331 ± 298 pmol/min/mg | Kinetics type (recombinant human UGT2B4): Substrate inhibition | Vmax (recombinant human UGT2B4): 1976 ± 158 pmol/min/mg | Kinetics type [3]: Michaelis–Menten | Vmax [3]: 3472 ± 129 pmol/min/mg | Kinetics type (recombinant human UGT1A9): Michaelis–Menten | Vmax (recombinant human UGT1A9): 6.0 ± 2.2 pmol/min/mg

B1: recombinant human UGT2B4 (Homo sapiens) (protein)
chain: GKVLVWPTEFSHWMNIKTILDELVQRGHEVTVLASSASISFDPNSPSTLKFEVYPVSLTKTEFEDIIKQLVKRWAELPKDTFWSYFSQVQEIMWTFNDILRKFCKDIVSNKKLMKKLQESRFDVVLADAVFPFGELLAELLKIPFVYSLRFSPGYAIEKHSGGLLFPPSYVPVVMSELSDQMTFIERVKNMIYVLYFEFWFQIFDMKKWDQFYSEVLGRPTTLSETMAKADIWLIRNYWDFQFPHPLLPNVEFVGGLHCKPAKPLPKEMEEFVQSSGENGVVVFSLGSMVSNTSEERANVIASALAKIPQKVLWRFDGNKPDTLGLNTRLYKWIPQNDLLGHPKTRAFITHGGANGIYEAIYHGIPMVGVPLFADQPDNIAHMKAKGAAVSLDFHTMSSTDLLNALKTVINDPLYKENAMKLSRIHHDQPVKPLDRAVFWIEFVMRHKGAKHLRVAAHDLTWFQYHSLDVTGFLLACVATVIFIITKCLFCVWKFVRTGKKGKRD
Km [9, 11]: 55 µM | Vmax [9, 11]: 1976 pmol/min/mg | Km [10, 11]: 51 µM | Vmax/Km [10, 11]: 5.2 µL/min/mg

B2: recombinant human UGT2B7 (Homo sapiens) (protein)
chain: GKVLVWAAEYSHWMNIKTILDELIQRGHEVTVLASSASILFDPNNSSALKIEIYPTSLTKTELENFIMQQIKRWSDLPKDTFWLYFSQVQEIMSIFGDITRKFCKDVVSNKKFMKKVQESRFDVIFADAIFPCSELLAELFNIPFVYSLSFSPGYTFEKHSGGFIFPPSYVPVVMSELTDQMTFMERVKNMIYVLYFDFWFEIFDMKKWDQFYSEVLGRPTTLSETMGKADVWLIRNSWNFQFPYPLLPNVDFVGGLHCKPAKPLPKEMEDFVQSSGENGVVVFSLGSMVSNMTEERANVIASALAQIPQKVLWRFDGNKPDTLGLNTRLYKWIPQNDLLGHPKTRAFITHGGANGIYEAIYHGIPMVGIPLFADQPDNIAHMKARGAAVRVDFNTMSSTDLLNALKRVINDPSYKENVMKLSRIQHDQPVKPLDRAVFWIEFVMRHKGAKHLRVAAHDLTWFQYHSLDVIGFLLVCVATVIFIVTKCCLFCFWKFARKAKKGKND
Km [9, 12]: 38 µM | Vmax [9, 12]: 1331 pmol/min/mg | Km [10, 12]: 21 µM | Vmax [10, 12]: 1043 pmol/min/mg | Vmax/Km [10, 12]: 50 µL/min/mg
